According to BindingDB's records for doi:10.1016/j.bmc.2010.04.050 (Purdue University, 2010):

Target: Low molecular weight phosphotyrosine protein phosphatase ACP1 (Homo sapiens) (UniProt P24666)
Test: Inhibition of human cytoplasmic protein tyrosine phosphatase A assessed as change in enzyme activity at pH 7

Chain of Low molecular weight phosphotyrosine protein phosphatase ACP1 (Homo sapiens) (P24666 whole entry, looked up): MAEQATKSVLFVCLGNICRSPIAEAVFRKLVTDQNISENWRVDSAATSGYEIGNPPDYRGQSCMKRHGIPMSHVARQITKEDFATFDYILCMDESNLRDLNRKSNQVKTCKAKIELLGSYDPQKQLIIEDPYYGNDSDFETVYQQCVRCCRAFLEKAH

For `O=NC(Cc1ccnc2ccccc12)C(=O)O` (stereo unspecified) [2-(hydroxyimino)-3-(quinolin-4-yl)propanoic acid], the IC50 was 72 µM.
